SMILES strings stand for the structures. The source made the active and inactive calls. The rule behind the calls is not given here. Bounds are passed on as bounds.

In this experiment the test system is UPR adaptive arm reporter cells, luciferase luminescence. Description: adaptive unfolded protein response reporter activation – cell-based, luciferase luminescence, dose response (AID 489032).
On to `CCOc1ccccc1-n1c(SCC(=O)Nc2ccc(CC)cc2)nc2n[nH]c(C)c2c1=N`, for which the EC50 was 5.91 µM.

With `O=C(Nc1ccc2nc3n(c(=O)c2c1)CCCCC3)c1ccccc1Cl`, the EC50 was > 80 µM (inactive).

For `CN(C)CCOc1ccc(-c2c(-c3ccccc3)sc3ccccc23)cc1`, the EC50 was > 80 µM (inactive).

In the case of `C/C(=N/Nc1cc(-c2ccccc2)nc(-c2ccccc2)n1)c1ccc(O)cc1`, the concentration for a half-maximal effect (EC50) is 19.9 µM.

As to `Cc1ccc(Nc2nc(NCc3ccco3)c3ccccc3n2)cc1`, the concentration giving a half-maximal response (EC50) was 17.8 µM.

In the case of `Cc1nn(Cc2ccccc2)c(C)c1NC(=O)CSc1nc(C2CC2)nc2c1cnn2-c1ccccc1`, the EC50 was 47.2 µM (inactive).

For `O=[N+]([O-])c1ccc(Cl)c(-c2ccc(/C=N/c3c(-c4ccco4)nc4ccccn34)o2)c1`, the EC50 is 39.3 µM (inactive).

Take `Cc1cccn2c(=O)c3cc(C(=O)NC4CCCCCC4)sc3nc12`: the EC50 is > 80 µM (inactive).

Consider `COc1ccccc1NC(=O)c1cc2c(CO)cnc(C)c2oc1=Nc1ccccc1`, for which the EC50 is 25.7 µM (inactive).

Take `O=c1cc(C(Cl)(Cl)Cl)oc2c1ccc1ccccc12`: the EC50 is 18.1 µM.

As to `COc1ccc(C2NCCc3c2[nH]c2ccccc32)cc1COc1ccc(F)cc1` (stereo not given), the EC50 is > 80 µM (inactive).

For `COc1cc([C@@H]2c3cc4c(cc3[C@@H](O)[C@H]3COC(=O)[C@H]23)OCO4)cc(OC)c1O[Si](C)(C)C(C)(C)C`, the EC50 is > 80 µM (inactive).

As to `Cc1ccc(Cc2cnc(NC(=O)/C(C#N)=C/c3ccc(-c4cccc([N+](=O)[O-])c4)o3)s2)cc1`, the EC50 is 18.1 µM.

Regarding `CCOC(=O)c1ccc(-c2ccc(/C=N/NC(=O)CN(c3cccc(C)c3)S(C)(=O)=O)o2)cc1`, the EC50 was 18.2 µM.

For the compound `COc1cc(/C=C/c2ccc3cccc(O)c3n2)ccc1O`, the EC50 is > 80 µM (inactive).

As to `CC(C)c1cccc(-c2ccc3c(c2)S(=O)(=O)c2cccc(C(=O)NCc4ccccc4Cl)c2C3=O)c1`, the EC50 was 38.4 µM (inactive).

On to `OCCNc1nc(Nc2ccc(Br)cc2)nc2ccccc12`, for which the EC50 is > 80 µM (inactive).

Consider `CCOC(=O)c1c(NC(=O)CSc2nnc3c(n2)[nH]c2ccc(F)cc23)sc(C(C)=O)c1C`, for which the EC50 was 21.8 µM (inactive).

With `Cc1ccc(C(=O)N2N=C(c3ccc(Br)cc3)CC2c2ccccc2O)cc1` (stereo not given), the EC50 was > 80 µM (inactive).

Turning to `CCOC(=O)c1c(NC(=O)c2cc(-c3ccc(O)cc3)on2)sc(C(C)=O)c1C`, the EC50 was > 80 µM (inactive).

In the case of `COc1ccc(Cn2c(SCc3cc(C)ccc3C)nc3cc(OC)c(OC)cc3c2=N)cc1`, the EC50 was > 80 µM (inactive).

In the case of `CCOc1ccc2nc(NC3=NC(c4ccc(OC)cc4)CC(=O)N3)nc(C)c2c1` (stereo not given), the EC50 is 15.6 µM.

As for `Cc1ccc(-c2nnc(-c3ccc(NC(=O)c4cccs4)cc3)o2)cc1`, the EC50 was 15.9 µM.

In the case of `CN1Cc2c(N3CCOCC3)nc3sc(C(=O)c4ccc(Br)cc4)c(N)c3c2CC1(C)C`, the EC50 was > 80 µM (inactive).

Regarding `Cc1ccc2nc(-c3ccc(NC(=S)NC4CC(C)(C)NC(C)(C)C4)cc3)sc2c1`, the EC50 was > 80 µM (inactive).

With `O=C(Nc1ccc(Oc2ccc(NC(=O)Nc3ccccc3Cl)cc2)cc1)Nc1ccccc1Cl`, the EC50 was > 80 µM (inactive).

For the compound `C#CCOCCOCCOCCNc1nc(N2CCN(C(=O)CCCCCCCCCCNC(=O)[C@H](CCCCN)n3cc(C[C@@H](C)CC)nn3)CC2)nc(N2CCN(C(=O)CCCCCCCCCCNC(=O)[C@H](CCCN=C(N)N)n3cc(C[C@@H](C)CC)nn3)CC2)n1`, the EC50 was > 80 µM (inactive).

As to `Brc1ccc2c(c1)C(c1ccc(N3CCOCC3)cc1)=NNC(c1cccs1)=N2`, the EC50 is 26.4 µM (inactive).

As to `CCOC(=O)c1nnc(-c2ccccc2)nc1Oc1ccc(Cl)cc1`, the EC50 is > 80 µM (inactive).

Consider `CN(c1ccccc1)S(=O)(=O)c1cccc(C(=O)NCCc2ccc(O)c(O)c2)c1`, for which the EC50 is 32.2 µM (inactive).

For the compound `CCOC(=O)c1cc(NC(=O)c2ccc(Cl)cc2)c(=O)n2c1oc1ccc(Cl)cc12`, the EC50 was > 80 µM (inactive).

Regarding `COc1ccc([N+](=O)[O-])cc1COc1ccc2c(-c3ccccc3)cc(=O)oc2c1`, the EC50 is > 80 µM (inactive).

With `Nc1nc(Nc2cccc(F)c2)nc2ccccc12`, the EC50 is 73.9 µM (inactive).

`CCn1c(/C=C/c2c(C)[nH]c3ccccc23)nc2ccccc2c1=O`: the EC50 was > 80 µM (inactive).

As to `COc1ccc(/C=N/NC(=O)c2cccc([N+](=O)[O-])c2)c2ccccc12`, the EC50 was > 80 µM (inactive).

On to `C=CCN=C1S/C(=C/c2cccc([N+](=O)[O-])c2)C(=O)N1CC=C`, for which the EC50 is > 80 µM (inactive).

Take `O=[N+]([O-])c1cc(-c2ccc(/C=N/c3nc4ccccn4c3-c3ccco3)o2)ccc1Cl`: the EC50 was > 80 µM (inactive).

On to `COc1cc(/C=N/NC(N)=O)c(Br)cc1OCC(=O)Nc1ccccc1C`, for which the EC50 is > 80 µM (inactive).

In the case of `CCOC(=O)c1nn(-c2ccc(OCC)cc2)c2nc(-c3ccco3)c(C#N)c(=O)n12`, the EC50 is 58.9 µM (inactive).

Regarding `Cc1ccc2oc(C(Cl)(Cl)Cl)cc(=O)c2c1`, the EC50 is 28.3 µM (inactive).

With `CCCCN(CC)S(=O)(=O)c1ccc(C(=O)N(CCCN(C)C)c2nc3cc(C)cc(C)c3s2)cc1`, the EC50 was > 80 µM (inactive).

For `OCCCn1c(C2CCCN2c2nc(-c3ccc(F)cc3)cs2)nc2cc(Cl)c(N3CCCCC3)cc21` (stereo not given), the EC50 is > 80 µM (inactive).

For `Cc1cccc(N2CCN(C(=S)Nc3ccc4nc(N5CCN(C)CC5)cc(C)c4c3)CC2C)c1` (stereo not given), the EC50 was > 80 µM (inactive).

For the compound `CCOC(=O)/C=c1\s/c(=C\c2ccc3cc(OC)ccc3c2)c(=O)n1CC(=O)NCC1CCCO1` (stereo not given), the EC50 is 54.1 µM (inactive).

On to `Cc1cccc(NC(=O)c2nc[nH]c2C(=O)Nc2ccccc2[N+](=O)[O-])c1`, for which the EC50 is > 80 µM (inactive).

As to `O=C(NN1C(=O)/C(=C/c2ccc(O)c(O)c2)SC1=S)c1ccccc1`, the EC50 was > 80 µM (inactive).

With `CCOC(=O)c1c(NC(=O)CNC2CCCc3ccccc32)sc(C(N)=O)c1C` (stereo not given), the EC50 is > 80 µM (inactive).

Turning to `COc1cc(N(C(=O)Cc2cccs2)C(C(=O)NC2CCCCC2)c2ccc(C)cc2)ccc1-n1cnnn1` (stereo not given), the EC50 is > 80 µM (inactive).

As to `Cc1cccc(NC(=O)CSc2nc(C)c(CC(=O)c3ccc(Br)cc3)c(C)c2C#N)c1C`, the EC50 is > 80 µM (inactive).

As for `Oc1ccc(Br)cc1/C=N/Nc1ccccn1`, the EC50 was > 80 µM (inactive).

`N#C/C(=C/c1ccc(N2CCCC2)c([N+](=O)[O-])c1)c1nc2ccccc2[nH]1`: the EC50 was > 80 µM (inactive).

In the case of `COc1ccc(S(=O)(=O)N2c3cc(Cl)ccc3Oc3nc4ccccc4nc32)cc1`, the EC50 is > 80 µM (inactive).

For `CCCCCCCCCCOC(=O)Cn1c(COc2ccccc2OC)[n+](C)c2ccccc21`, the EC50 is 18.1 µM.

`COc1ccc(Br)cc1-c1nc2c(c(=O)[nH]c(=O)n2Cc2ccccc2)n1C`: the EC50 was 63.1 µM (inactive).

With `Clc1ccc(C2=Nn3c(nnc3-c3cc(-c4ccccc4)n[nH]3)SC2)cc1`, the EC50 is > 80 µM (inactive).

In the case of `CC1(C)CC(=O)C(C=Nc2ccc(C(=O)c3ccccc3)cc2N=CC2=C(O)CC(C)(C)CC2=O)=C(O)C1`, the EC50 was > 80 µM (inactive).

Regarding `NCCc1c(-c2ccccc2)n(-c2ccccc2)c2ccccc12`, the EC50 was > 80 µM (inactive).

Consider `CCC/C(=N/Nc1ccc(Cl)cc1)c1cnnc(-c2ccccc2)n1`, for which the EC50 is > 80 µM (inactive).

Consider `CCOC(=O)c1[nH]c2ccc(Cl)cc2c1NC(=O)/C=C/c1ccc2c(c1)OCO2`, for which the EC50 is 74.2 µM (inactive).

In the case of `Cc1cc(N2CCN(c3ccc([N+](=O)[O-])c4cccnc34)CC2)c2ccccc2n1`, the EC50 was 21.4 µM (inactive).

One may read the EC50 as the concentration that produces a half-maximal response.

(Values after PubChem BioAssay AID489032 (Sanford-Burnham Center for Chemical Genomics, 2010).)
